Test results as given in paper PMC8448819, “The Arabidopsis MIK2 receptor elicits immunity by sensing a conserved signature from phytocytokines and microbes” (Nature Communications, 2021).
Where “and” joins values, the source holds several entries; their conditions need not be identical. Equal entries are not always repeated. Where two headings read alike, the source gives them in different places.

Assays:
Format in all cases: in vivo, Arabidopsis thaliana
[1] = tested on: Arabidopsis WT (Col-0) seedlings
[2] = tested on: mik2-1 and mik2-2 mutant seedlings; settings: for Root length (Fig. 3d) / Root length (Fig. 3b) / Root length (Fig. 3e): individual values, one per line
[3] = tested on: Arabidopsis WT seedling roots; assay: Microscopy of root browning and root meristems, WT
mik2-1 seedling roots = assay: Microscopy of root meristems, mik2-1; settings: mik2-1, 1 µM, 48 h
[4] = tested on: MPK3, MPK4 and MPK6 phosphorylation, WT seedlings; assay: MAPK assay (α-pERK1/2 immunoblot), WT; settings: Supplementary Fig. 3i
Description: Ten-day-old seedlings grown vertically on ½MS plates were transferred to ddH2O overnight for recovery. Then, ddH2O was replaced by 100 nM peptides for the indicated time.

[5] = tested on: MPK3, MPK4 and MPK6 phosphorylation, mik2-1 seedlings; assay: MAPK assay (α-pERK1/2 immunoblot), mik2-1; set-up: dose or concentration left out as unconfirmed; settings: mik2-1, α-pERK1/2 immunoblot
[6] = tested on: WRKY30, WRKY33 and CYP81F2 expression, WT seedlings; assay: RT-qPCR of defense genes, WT
[7] = tested on: RLK7^ECD-MIK2^TK/rlk7 and RLK7/rlk7 transgenic seedlings; assay: Root growth assay, rlk7, RLK7/rlk7 and RLK7^ECD-MIK2^TK/rlk7 seedlings
Description: The BAK1 (AT4G33430), SERK4 (AT2G13790), BIK1 (AT2G39660), and MIK2 (AT4G08850) coding sequences (CDSs) were amplified by PCR from Col-0 cDNA using the primers containing BamHI at the 5′ end and StuI at the 3′ end. The PCR products were digested by BamHI and StuI, followed by ligation into the pHBT-FLAG or pHBT-HA vector to generate pHBT-35S::BAK1-FLAG, pHBT-35S::SERK4-FLAG, pHBT-35S::BIK1-HA, pHBT-35S::MIK2-HA, and pHBT-35S::MIK2-GFP constructs[24],[41],[62]. MIK2^ECD (residues 1–707) and BAK1^ECD (residues 1–220) were amplified by PCR from Col-0 cDNA and cloned into pFastBac-1 vector with a C-terminal 6× HIS tag[25],[62]. The fusion protein vectors carrying MIK2^ECD or BAK1^ECD were used for insect cell expression. To obtain the binary vector pCAMBIA1300-35S::RLK7, a 2907-bp RLK7 CDS was PCR-amplified from WT cDNA using gene-specific primers with KpnI and SalI at the 5′ and 3′ ends, respectively, followed by KpnI and SalI digestion and ligation into the pCAMBIA1300 vector. To generate the binary vector pCAMBIA1300 carrying the RLK7^ECD-MIK2^TK chimeric receptor gene, an 1824-bp fragment encoding RLK7^ECD was PCR-amplified from WT cDNA using a gene-specific forward primer with KpnI at the 5′ end and a gene-specific reverse primer with 8-bp overlapping sequence from the 5′ end of MIK2^TK, and a 1011-bp fragment encoding MIK2^TK using a gene-specific forward primer with 8-bp overlapping sequence from the 3′ end of RLK7 ^ECD and a gene-specific reverse primer with SalI at the 5′ end. RLK7^ECD was fused with MIK2^TK and inserted into the pUC19 vector using in-fusion recombinant enzymes (Clontech). […]
Cold stratified seeds were surface-sterilized with 70% (v/v) ethanol for 5 min and were sown on ½MS plates with or without peptides at indicated concentrations. Ten-day-old seedlings grown on plates vertically in a growth chamber were photographed, and the root lengths of seedlings were measured using Image J (http://rsb.info.nih.gov/ij/).

[8] = tested on: gene expression, RLK7^ECD-MIK2^TK/rlk7 seedlings; assay: RNA-Seq, RLK7^ECD-MIK2^TK/rlk7; settings: for gene expression fold change: RLK7ECD-MIK2TK/rlk7, 1 μM PIP1 vs Ctrl, 1 h
Description: Seedlings were then treated with or without 1 μM PIP1 or SCOOP12 for 1 or 6 h and harvested for RNA isolation. Total RNAs (5 μg) from two biological replicates were pooled for cDNA library construction. cDNA library preparation and sequencing were carried out on an Illumina HiSeq 4000 platform with 150-nucleotide pair-end reads in LC-BIO (Hangzhou, China). Total reads were mapped to the Arabidopsis genome (TAIR10; www.arabidopsis.org) with Hisat, and the read counts for every gene were generated with StringTie. The expression levels of genes were calculated by quantifying the cDNA fragments per kilobase of transcript per million fragments mapped (FPKM). Differentially expressed genes (DEGs) between different treatments were defined by fold change of read counts at 1 and 6 h compared to that at 0 h (differential expression analysis using edgeR, fold change ≥ 2 with p-value ≤ 0.01). DEGs were listed in Supplementary Data 2.

[9] = RLK7^ECD-MIK2^TK/rlk7, 1 µM PIP1

Substance: PNGDIFTGPSGSGHGGGR [SCOOP10B, synthesized SCOOP peptide corresponding to the SxS motif]
- root growth retardation, concentration series, WT ([1]; 1 to 100 nM SCOOP10^B): more pronounced with the increased concentrations of SCOOP10^B from 1 to 100 nM
- concentration at which still active ([1]; in vivo): 1 nM
- root growth inhibition ([1]; in vivo): inhibited root growth to various degrees, with SCOOP10^B and 13 being the most active
- root growth retardation, concentration series, mik2-1 ([2]; 1 to 100 nM SCOOP10^B): completely abolished in mik2-1
- Root length (Fig. 3d) ([2]; mik2-1, 1 nM): 32.99 and 31.78 and 33.56 and 34.62 and 30.06 and 35.81 and 29.29
- Root length (Fig. 3d) ([2]; mik2-1, 10 nM): 32.32 and 29.96 and 32.75 and 34.52 and 30.66 and 29.77 and 30.84 and 33.97
- Root length (Fig. 3d) ([2]; mik2-1, 100 nM): 29.63 and 33.44 and 32.76 and 35.81 and 32.02 and 28.87 and 34.13 and 30.25
- Root length (Fig. 3b) ([2]; mik2-1): 25.833 and 26.302 and 24.889 and 27.342 and 26.636 and 27.534 and 28.728 and 25.164 and 27.761
- Root length (Fig. 3e) ([2]; mik2-1): 22.911 and 21.027 and 23.034 and 25.697 and 26.332 and 26.187 and 22.644 and 27.144 and 23.211 and 23.187
- root growth inhibition in mik2 ([2]; mik2-1 and mik2-2, 10-day-old seedlings, 1 µM peptide): insensitive to the treatment of SCOOP10^B
- Root length (Fig. 3b) ([2]; mik2-2): 28.386 and 27.709 and 30.155 and 29.447 and 28.883 and 28.332 and 29.63 and 28.607 and 26.83
- Root length (Fig. 3e) ([2]; mik2-2): 22.343 and 22.532 and 23.158 and 21.859 and 27.286 and 27.619 and 26.253 and 24.148 and 29.659 and 25.362
- root browning ([3]; WT seedlings, prolonged treatment): led to brown roots
- root meristem distortion ([3]; WT, 5-day-old seedlings, 1 µM, 48 h, PI staining): distorted root meristems
- root meristem distortion in mik2-1 (mik2-1 seedling roots): not observed in mik2-1
- MAPK activation in shoots and roots [4]: triggered the MAPK activation in both shoots and roots
- MAPK activation in mik2 [5]: abolished in mik2 mutants
- WRKY30, WRKY33 and CYP81F2 expression ([6]; 1 µM, 1 h, RT-qPCR): upregulation
- CYP81F2 expression (Fig. 3i) ([6]; repeat 1): 82.36
- CYP81F2 expression (Fig. 3i) ([6]; repeat 2): 146.22
- CYP81F2 expression (Fig. 3i) ([6]; repeat 3): 132.08
- CYP81F2 expression (Fig. 3i) ([6]; repeat 4): 187.19

Substance: RLASGP(OH)SPRGRGH [PIP1, secreted peptide, ligand of RLK7]
- root growth retardation ([7]; RLK7/rlk7 and RLK7^ECD-MIK2^TK/rlk7, 1 µM PIP1): restored the sensitivity to PIP1 treatment exhibiting root growth retardation
- brown roots and darkened root-hypocotyl junctions ([7]; RLK7^ECD-MIK2^TK/rlk7): brown roots and darkened root-hypocotyl junctions
- root growth retardation vs RLK7/rlk7 [7, 9]: more substantial root growth retardation
- small peptide genes induced [8, 9]: 51 genes
- expression of SCOOP genes ([8]; RLK7^ECD-MIK2^TK/rlk7, 1 µM PIP1, 0, 1 and 6 h): induces the expression of SCOOP genes
- SCOOP, STMP and SCOOP/STMP-like genes induced ([8]; RLK7^ECD-MIK2^TK/rlk7, 1 µM PIP1, among 51 induced small peptide genes): 18 genes
- gene expression fold change ([8]; gene AT1G53080): 194.45
- gene expression fold change ([8]; gene AT5G52400): 19374.61
- gene expression fold change ([8]; gene AT5G52700): 11109.32
